Measured values reported in patent US7605121B2, “Oligopeptide lyophilisate, their preparation and use” (AEterna Zentaris GmbH, priority 1993, dated 2009).
Where a SMILES comes first, the peptide text is derived from it. [ ]: non-standard residue; d: D form. dPhe(4-Cl) = N[C@H](Cc1ccc(Cl)cc1)C(=O)O; d2Nal = N[C@H](Cc1ccc2ccccc2c1)C(=O)O; dCit = NC(=O)NCCC[C@@H](N)C(=O)O; d3Pal = N[C@H](Cc1cccnc1)C(=O)O

How the values were obtained:
[1] = Stability of aqueous solution / conventional sterilization; type: physicochemical
Protocol: It should be possible to administer the active substance subcutaneously in a dose of 0.1 to 20 mg. Aqueous solutions of the decapeptide are unstable, and, therefore, autoclaving in the container used to distribute it is not possible. […] To obtain an injectable solution it was therefore necessary to develop a lyophilizate.

[2] = Dissolution in 30% volume/volume acetic acid; type: physicochemical
Protocol: (§1) The solution is then diluted to a final concentration of 3% peptide, e.g., cetrorelix, with water for injection purposes and mannitol is added. Although it is stated in the literature that the terminal amide group hydrolyzes easily in acid medium, this was not found in the case of cetrorelix. Solutions prepared according to this method caused no difficulties during filtration. The correct amounts of active substance were always found.

[3] = system: endogenous hormone production (LH-FSH, oestradiol); test: Suppression of endogenous hormone production in in-vitro fertilization treatment; type: in vivo, patients; conditions: treatment over 5 days; female sterility / in-vitro fertilization
Excerpt: The premature LH peaks cannot arise and the frequency of hyperstimulation syndrome should be reduced. In addition, less HMG is used in the 2nd phase of therapy, the ovulation triggering phase. This gives this in-vitro fertilization treatment a not inconsiderable cost advantage. In-vitro fertilization is, for example, used when a tube anomaly is present. To perform this treatment it is necessary to precisely monitor the cycle and to establish the time of ovulation as precisely as possible. This has hitherto only been achieved to a limited extent since preovulatory LH increase often occurred too early due to simulation with HMG/HCG, or was not maintained for a sufficiently long period. Avoidance of this premature increase is, however, of critical importance for the success of the treatment in order to precisely determine the time of fertilization. This reduces the physical and mental burden on the patient and makes optimum use of hospital logistics. To achieve this objective with great reliability it is necessary to suppress endogenous hormone production (LH-FSH, oestradiol) as completely as possible in order to simultaneously stimulate follicle maturation through administration of exogenous gonadotrophins (HMG/HCG) and to monitor the hormone status at any time. […]

[4] = Hydrolysis of terminal amide group in acid medium; type: physicochemical; conditions: acid medium (acetic acid solution)
Protocol: as §1

CC(=O)N[C@H](Cc1ccc2ccccc2c1)C(=O)N[C@H](Cc1ccc(Cl)cc1)C(=O)N[C@H](Cc1cccnc1)C(=O)N[C@@H](CO)C(=O)N[C@@H](Cc1ccc(O)cc1)C(=O)N[C@H](CCCNC(N)=O)C(=O)N[C@@H](CC(C)C)C(=O)N[C@@H](CCCNC(=N)N)C(=O)N1CCC[C@H]1C(=O)N[C@H](C)C(N)=O [Cetrorelix] (Ac-[d2Nal][dPhe(4-Cl)][d3Pal]SY[dCit]LRP[dA]-NH2)
Stability of aqueous solutions ([1]; aqueous solution, autoclaving in the container not possible): unstable
Behaviour during conventional sterilization ([1]; conventional sterilization, prescribed conditions): tends to decompose
Solubility in acetic acid [2]: easily dissolved
Suppression achieved [3]: total suppression
Hydrolysis of terminal amide group [4]: not found
